Assay results: ChEMBL document CHEMBL1909046, “DrugMatrix in vitro pharmacology data”

Columns and labels:
[1] = target: T1, Alpha-1B adrenergic receptor (Rattus norvegicus, UniProt P15823); assay: DRUGMATRIX: Alpha-1B adrenergic receptor radioligand binding (ligand: prazosin); type: cell membranes, Wistar, Liver, Membrane; conditions: Not Active = under 50% inhibition at 10 µM
T1 sequence (P15823 whole entry): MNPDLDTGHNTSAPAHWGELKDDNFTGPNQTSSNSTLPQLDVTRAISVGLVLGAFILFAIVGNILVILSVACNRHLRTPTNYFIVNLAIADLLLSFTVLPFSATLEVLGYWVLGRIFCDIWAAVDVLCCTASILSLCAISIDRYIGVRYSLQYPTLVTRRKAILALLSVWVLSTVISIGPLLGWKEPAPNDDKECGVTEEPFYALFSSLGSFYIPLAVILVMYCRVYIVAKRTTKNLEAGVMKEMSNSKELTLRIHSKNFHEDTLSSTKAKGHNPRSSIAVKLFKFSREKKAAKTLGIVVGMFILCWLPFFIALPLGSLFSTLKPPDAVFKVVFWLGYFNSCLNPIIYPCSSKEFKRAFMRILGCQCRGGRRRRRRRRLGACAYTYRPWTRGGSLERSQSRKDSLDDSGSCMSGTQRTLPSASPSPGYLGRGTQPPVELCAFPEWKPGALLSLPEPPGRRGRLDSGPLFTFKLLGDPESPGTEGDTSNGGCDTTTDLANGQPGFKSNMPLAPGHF

Thromboxane-A synthase = target: T2, Thromboxane-A synthase (Homo sapiens, UniProt P24557); assay: biochemical; type: tissue-based, Platelet; conditions: platelet;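 note: enzyme inhibition assay with PGH2 supplied as substrate; in other assays of this panel Not Active means under 50% inhibition at 10 µM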
T2 sequence (P24557 whole entry): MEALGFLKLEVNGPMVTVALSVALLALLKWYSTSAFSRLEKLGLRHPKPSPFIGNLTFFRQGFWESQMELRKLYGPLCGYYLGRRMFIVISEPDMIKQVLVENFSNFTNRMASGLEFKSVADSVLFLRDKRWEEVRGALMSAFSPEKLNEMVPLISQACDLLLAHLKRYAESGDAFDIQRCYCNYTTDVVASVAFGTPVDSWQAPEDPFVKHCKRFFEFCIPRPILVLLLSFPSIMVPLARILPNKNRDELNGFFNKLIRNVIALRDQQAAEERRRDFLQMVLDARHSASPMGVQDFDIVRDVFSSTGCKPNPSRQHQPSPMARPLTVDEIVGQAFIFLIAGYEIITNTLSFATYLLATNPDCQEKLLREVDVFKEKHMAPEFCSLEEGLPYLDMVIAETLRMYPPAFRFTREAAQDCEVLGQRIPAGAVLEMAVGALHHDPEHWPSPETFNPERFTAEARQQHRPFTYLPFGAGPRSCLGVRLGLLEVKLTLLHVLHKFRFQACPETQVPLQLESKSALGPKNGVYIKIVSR

D(3) dopamine receptor = D(3) dopamine receptor (Homo sapiens, UniProt P35462); assay: DRUGMATRIX: Dopamine D3 radioligand binding (ligand: [3H] Spiperone); type: cell membranes, CHO, Membrane
[2] = target: T3, Angiotensin-converting enzyme (Oryctolagus cuniculus, UniProt P12822); type: tissue-based, Lung;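 note: enzymatic inhibition of angiotensin-converting enzyme measured with FAPGG as the substrate; in other assays of this panel Not Active means under 50% inhibition at 10 µM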
T3 sequence (P12822 whole entry): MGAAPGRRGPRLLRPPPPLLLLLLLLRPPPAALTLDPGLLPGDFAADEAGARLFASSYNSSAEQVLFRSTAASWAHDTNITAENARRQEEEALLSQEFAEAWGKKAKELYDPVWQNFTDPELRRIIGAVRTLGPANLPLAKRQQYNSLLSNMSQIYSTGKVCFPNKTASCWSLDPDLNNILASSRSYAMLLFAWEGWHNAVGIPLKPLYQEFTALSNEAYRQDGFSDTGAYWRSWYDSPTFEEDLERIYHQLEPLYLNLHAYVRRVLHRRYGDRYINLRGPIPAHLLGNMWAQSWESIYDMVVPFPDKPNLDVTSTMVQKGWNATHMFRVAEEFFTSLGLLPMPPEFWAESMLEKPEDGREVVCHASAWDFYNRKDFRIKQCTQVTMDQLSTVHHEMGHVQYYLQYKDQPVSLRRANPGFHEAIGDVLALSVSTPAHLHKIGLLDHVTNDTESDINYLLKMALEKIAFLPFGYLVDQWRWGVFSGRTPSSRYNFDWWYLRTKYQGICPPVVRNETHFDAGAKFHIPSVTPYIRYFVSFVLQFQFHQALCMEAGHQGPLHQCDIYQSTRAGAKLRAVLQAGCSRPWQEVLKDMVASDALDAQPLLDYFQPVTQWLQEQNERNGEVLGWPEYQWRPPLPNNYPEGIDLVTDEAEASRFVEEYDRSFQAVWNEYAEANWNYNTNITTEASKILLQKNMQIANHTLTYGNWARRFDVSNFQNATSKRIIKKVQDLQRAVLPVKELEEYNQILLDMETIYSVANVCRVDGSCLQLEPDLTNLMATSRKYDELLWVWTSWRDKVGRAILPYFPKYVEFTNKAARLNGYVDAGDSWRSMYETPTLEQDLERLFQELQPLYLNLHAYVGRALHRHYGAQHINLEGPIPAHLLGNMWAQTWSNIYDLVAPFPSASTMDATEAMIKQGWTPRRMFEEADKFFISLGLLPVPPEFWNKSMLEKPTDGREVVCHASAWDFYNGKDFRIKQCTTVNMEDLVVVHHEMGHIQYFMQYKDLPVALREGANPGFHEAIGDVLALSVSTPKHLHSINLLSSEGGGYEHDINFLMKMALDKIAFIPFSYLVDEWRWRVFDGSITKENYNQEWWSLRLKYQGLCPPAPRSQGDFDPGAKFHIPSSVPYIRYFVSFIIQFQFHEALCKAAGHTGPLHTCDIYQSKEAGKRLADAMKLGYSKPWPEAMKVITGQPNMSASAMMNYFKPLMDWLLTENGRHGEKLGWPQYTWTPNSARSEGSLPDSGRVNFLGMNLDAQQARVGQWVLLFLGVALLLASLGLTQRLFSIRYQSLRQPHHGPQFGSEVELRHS

Cytochrome P450 2A6 = target: T4, Cytochrome P450 2A6 (Homo sapiens, UniProt P11509); conditions: bti-tn-5b1-4; note: in other assays of this panel Not Active means under 50% inhibition at 10 µM
T4 sequence (P11509 whole entry): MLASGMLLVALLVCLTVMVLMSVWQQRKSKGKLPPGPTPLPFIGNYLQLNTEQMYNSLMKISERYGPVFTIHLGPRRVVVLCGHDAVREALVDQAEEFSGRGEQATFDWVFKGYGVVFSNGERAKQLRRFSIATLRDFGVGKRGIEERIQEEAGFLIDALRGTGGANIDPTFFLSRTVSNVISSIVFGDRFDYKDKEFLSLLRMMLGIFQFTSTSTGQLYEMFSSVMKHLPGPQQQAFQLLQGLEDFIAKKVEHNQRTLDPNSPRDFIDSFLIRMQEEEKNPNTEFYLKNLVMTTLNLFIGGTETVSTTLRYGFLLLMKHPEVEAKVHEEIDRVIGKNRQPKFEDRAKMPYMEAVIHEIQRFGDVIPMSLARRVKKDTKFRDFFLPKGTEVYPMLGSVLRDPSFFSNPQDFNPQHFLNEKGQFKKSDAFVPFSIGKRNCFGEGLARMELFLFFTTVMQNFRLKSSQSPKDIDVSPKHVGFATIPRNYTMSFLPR

Sequence of D(3) dopamine receptor (P35462 whole entry): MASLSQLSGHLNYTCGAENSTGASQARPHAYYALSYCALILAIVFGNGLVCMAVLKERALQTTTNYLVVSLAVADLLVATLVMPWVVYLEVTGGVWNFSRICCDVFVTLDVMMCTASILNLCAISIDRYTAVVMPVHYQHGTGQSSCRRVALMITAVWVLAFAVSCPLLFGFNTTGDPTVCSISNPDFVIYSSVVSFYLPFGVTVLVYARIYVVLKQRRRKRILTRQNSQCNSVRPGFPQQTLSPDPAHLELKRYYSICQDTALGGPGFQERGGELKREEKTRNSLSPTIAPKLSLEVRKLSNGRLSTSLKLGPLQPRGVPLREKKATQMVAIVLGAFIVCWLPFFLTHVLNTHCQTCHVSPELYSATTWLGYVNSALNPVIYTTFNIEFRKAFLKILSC

Row | SMILES | IC50 [1] | IC50 (Thromboxane-A synthase) | IC50 (D(3) dopamine receptor; cho) | IC50 [2] | IC50 (Cytochrome P450 2A6) | Ki (Cytochrome P450 2A6) | IC50 (D(3) dopamine receptor; read-out: IC50) [µM] | Ki (D(3) dopamine receptor; read-out: Ki) [µM]
1 | Cc1cc(=O)n(-c2ccccc2)n1C [ANTIPYRINE] | Not Active | Not Active | Not Active | Not Active | Not Active | Not Active |  | 
2 | CN1C(=O)COc2c(C(=O)NC3CN4CCC3CC4)cc(Cl)cc21 (stereo not drawn) [AZASETRON] | Not Active | Not Active | Not Active | Not Active | Not Active | Not Active |  | 
3 | C[C@H]1C[C@H]2[C@@H]3CCC4=CC(=O)C=C[C@]4(C)[C@@]3(Cl)[C@@H](O)C[C@]2(C)[C@@]1(O)C(=O)CO [BECLOMETHASONE] | Not Active | Not Active | Not Active | Not Active | Not Active | Not Active |  | 
4 | CCOC(=O)[C@H](CCc1ccccc1)N[C@H]1CCc2ccccc2N(CC(=O)O)C1=O [BENAZEPRIL] | Not Active | Not Active | Not Active | Not Active | Not Active | Not Active |  | 
5 | O=NN(CCCl)C(=O)NCCCl [CARMUSTINE] | Not Active | Not Active | Not Active | Not Active |  |  |  | 
6 | O=C(N[C@H](CO)[C@H](O)c1ccc([N+](=O)[O-])cc1)C(Cl)Cl [CHLORAMPHENICOL] | Not Active | Not Active | Not Active | Not Active |  |  |  | 
7 | C[C@@H]1C[C@@H]([C@H](O)CC2CC(=O)NC(=O)C2)C(=O)[C@@H](C)C1 [CYCLOHEXIMIDE] | Not Active | Not Active | Not Active | Not Active |  |  |  | 
8 | C/C=C/C[C@@H](C)[C@@H](O)[C@H]1C(=O)N[C@@H](CC)C(=O)N(C)CC(=O)N(C)[C@@H](CC(C)C)C(=O)N[C@@H](C(C)C)C(=O)N(C)[C@@H](CC(C)C)C(=O)N[C@@H](C)C(=O)N[C@H](C)C(=O)N(C)[C@@H](CC(C)C)C(=O)N(C)[C@@H](CC(C)C)C(=O)N(C)[C@@H](C(C)C)C(=O)N1C [CYCLOSPORINE] | Not Active | Not Active | Not Active | Not Active |  |  |  | 
9 | CN(C)c1ccc(C(=C2C=CC(=[N+](C)C)C=C2)c2ccc(N(C)C)cc2)cc1.[Cl-] [GENTIAN VIOLET] |  | Not Active |  | Not Active | Not Active | Not Active | 0.831 | 0.282
10 | NC(=O)NO [HYDROXYUREA] | Not Active | Not Active | Not Active | Not Active |  |  |  | 
11 | COc1ccc2cc([C@H](C)C(=O)O)ccc2c1 [NAPROXEN] | Not Active | Not Active | Not Active | Not Active |  |  |  | 
12 | CCn1cc(C(=O)O)c(=O)c2cc(F)c(N3CCN(C)CC3)cc21 [PEFLOXACIN] | Not Active | Not Active | Not Active | Not Active |  |  |  | 
